Columns and labels:
hA1AR [1] = target: T1, hA1AR (Homo sapiens, UniProt P30542); experiment: Competition binding, [3H]DPCPX, hA1 CHO cell membranes; details: displacement of [3H]DPCPX, hA1 CHO cells; mean ± SEM of four assays
T1 construct: host or cells: CHO cells
T1 sequence (P30542 1-326): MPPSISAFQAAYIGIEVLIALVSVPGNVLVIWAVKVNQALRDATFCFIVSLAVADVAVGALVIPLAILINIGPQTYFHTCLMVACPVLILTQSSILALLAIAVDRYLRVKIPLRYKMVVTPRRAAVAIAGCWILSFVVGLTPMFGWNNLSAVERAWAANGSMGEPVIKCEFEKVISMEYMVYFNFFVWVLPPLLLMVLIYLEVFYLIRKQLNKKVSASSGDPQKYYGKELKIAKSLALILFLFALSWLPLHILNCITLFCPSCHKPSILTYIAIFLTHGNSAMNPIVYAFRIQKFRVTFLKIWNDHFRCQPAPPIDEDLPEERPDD
Method: (§1) CHO cells transfected with hA1, hA2A, hA2B and hA3 ARs (Perkin Elmer, Boston, MA, USA) were grown adherently and maintained in Dulbecco’s modified Eagle’s medium with nutrient mixture F12, containing 10% fetal calf serum, penicillin (100 U/mL), streptomycin (100 μg/mL), L-glutamine (2 mM) and geneticine (G418; 0.2 mg/mL), at 37 °C, in 5% CO2/95% air, until their use in cAMP assays. For membrane preparation, the culture medium was removed, and the cells were washed with phosphate-buffered saline and scraped off T75 flasks in ice-cold hypotonic buffer (5 mM Tris HCl, 1 mM EDTA, pH 7.4). The cell suspension was homogenized with a Polytron, centrifuged for 30 min at 40,000× g, at 4 °C, and the resulting membrane pellet was used for competition binding experiments.
(§2) All synthesized compounds were tested for their affinity to hA1, hA2A and hA3 ARs. Competition experiments to hA1AR were carried out by incubating 1 nM [^3H]-8-cyclopentyl-1,3-dipropylxanthine ([^3H]-DPCPX) with membrane suspension (50 μg of protein/100 μL) and different concentrations of the examined compounds at 25 °C for 90 min in 50 mM Tris HCl, pH 7.4. Non-specific binding was defined as binding in the presence of 1 μM DPCPX and was always <10% of the total binding. Inhibition experiments to hA2A ARs were performed by incubating the radioligand [^3H]-4-(-2-[7-amino-2-{2-furyl}{1,2,4}triazolo{2,3-a} {1,3,5}triazin-5-yl-amino]ethyl)phenol ([^3H]-ZM241385) (1 nM) with the membrane suspension (50 μg of protein/100 μL) and different concentrations of the examined compounds for 60 min, at 4 °C, in 50 mM Tris HCl (pH 7.4), 10 mM MgCl2. Non-specific binding was determined in the presence of ZM241385 (1 μM) and was about 20% of the total binding. Competition binding experiments to A3ARs were carried out by incubating the membrane suspension (50 μg of protein/100 μL) with 0.5 nM [^125I]-N6-(4-aminobenzyl)-N-methylcarboxamidoadenosine ([^125I]-ABMECA) in the presence of different concentrations of the examined compounds for an incubation time of 120 min, at 4 °C, in 50 mM Tris HCl (pH 7.4), 10 mM MgCl2, 1 mM EDTA. Non-specific binding was defined as binding in the presence of 1 μM ABMECA and was always <10% of the total binding. Bound and free radioactivity were separated by filtering the assay mixture through Whatman GF/B glass-fiber filters, using a Brandel cell harvester (Brandel Instruments, Unterföhring, Germany). The filter bound radioactivity was counted by Packard Tri Carb 2810 TR scintillation counter (Perkin Elmer).
(§3) The protein concentration was determined according to a Bio-Rad method, with bovine albumin as a standard reference. Inhibitory binding constant (Ki) values were calculated from those of IC50 according to the Cheng–Prusoff equation, Ki = IC50/(1 + [C*]/KD*), where [C*] is the concentration of the radioligand, and KD* its dissociation constant. Ki and IC50 values were calculated by non-linear regression analysis, using the equation for a sigmoid concentration-response curve (Graph-PAD Prism, San Diego, CA, USA).

hA2AAR = target: T2, hA2AAR (Homo sapiens, UniProt P29274); experiment: Competition binding, [3H]ZM241385, hA2A CHO cell membranes; details: displacement of [3H]ZM241385, hA2A CHO cells; mean ± SEM of four assays
T2 construct: host or cells: CHO cells
Method: as §1, §2, §3

hA3AR = target: T3, hA3AR (Homo sapiens, UniProt P0DMS8); experiment: Competition binding, [125I]AB-MECA, hA3 CHO cell membranes; details: for Ki: displacement of [125I]AB-MECA, hA3 CHO cells, mean ± SEM of four assays; for inhibition at 1 µM: 1 µM compound, [125I]AB-MECA binding, read-out: I% hA3 (percentage of inhibition)
T3 construct: host or cells: CHO cells
T3 sequence (P0DMS8 1-318): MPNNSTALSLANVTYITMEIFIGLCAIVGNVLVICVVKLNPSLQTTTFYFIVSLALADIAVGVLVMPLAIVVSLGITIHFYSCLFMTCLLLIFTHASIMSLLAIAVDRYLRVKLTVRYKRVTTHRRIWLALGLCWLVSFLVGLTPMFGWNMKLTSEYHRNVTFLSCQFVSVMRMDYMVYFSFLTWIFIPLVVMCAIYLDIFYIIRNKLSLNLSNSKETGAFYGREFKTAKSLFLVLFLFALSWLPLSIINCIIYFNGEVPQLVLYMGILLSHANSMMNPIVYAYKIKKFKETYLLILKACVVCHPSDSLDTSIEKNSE
Method: as §1, §2, §3

hA2B AR = target: T4, hA2B AR (Homo sapiens, UniProt P29275); experiment: cAMP assay in CHO cells expressing hA2B AR (stimulation of cAMP production); type: cell-based; details: for Emax at 1 µM: CHO, 1 µM compound, in comparison with NECA (1 µM = 100%), read-out: Efficacy hA2B (cAMP assay) (converted); for EC50: hA2B CHO cells, mean ± SEM of four assays
T4 construct: host or cells: CHO cells
T4 sequence (P29275 1-332): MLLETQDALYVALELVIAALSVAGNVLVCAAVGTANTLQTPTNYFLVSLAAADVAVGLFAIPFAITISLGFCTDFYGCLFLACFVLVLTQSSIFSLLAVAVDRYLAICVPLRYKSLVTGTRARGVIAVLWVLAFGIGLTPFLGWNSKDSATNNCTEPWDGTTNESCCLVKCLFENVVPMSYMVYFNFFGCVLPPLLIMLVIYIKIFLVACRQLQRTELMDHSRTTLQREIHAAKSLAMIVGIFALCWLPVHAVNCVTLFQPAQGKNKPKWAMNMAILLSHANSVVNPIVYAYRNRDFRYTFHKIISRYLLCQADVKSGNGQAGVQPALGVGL
Method: (§4) The amino-3,5-dicyanopyridines 1–21 were tested for their affinity at hA1, hA2A and hA3 ARs, stably transfected in Chinese Hamster Ovary (CHO) cells. Moreover, they were also studied as hA2B agonists by evaluating their stimulatory effect on cAMP production in CHO cells, stably expressing the hA2B AR. […] Due to their interesting pan profile, both compounds 1 and 5 were evaluated as AR agonists also at the hA2A and hA3 subtypes.
as §1
(§5) CHO cells transfected with hAR subtypes were washed with phosphate-buffered saline, detached with tripsine and centrifuged for 10 min at 200× g. Cells were seeded in a 96-well white half-area microplate (Perkin Elmer, Boston, USA) in a stimulation buffer composed of Hank Balanced Salt Solution, 5 mM HEPES, 0.5 mM Ro 20–1724, 0.1% BSA. The cAMP levels were then quantified by using the AlphaScreen cAMP Detection Kit (Perkin Elmer, Boston, MA, USA), following the manufacturer’s instructions. At the end of the experiments, the plates were read with a Perkin Elmer EnSight Multimode Plate Reader.

hA1AR [2] = target: T1, hA1AR; experiment: Modulation of Forskolin-stimulated cAMP levels in hA1 CHO cells; type: cell-based
Method: as §4, §1, §5

T2 sequence (P29274 whole entry): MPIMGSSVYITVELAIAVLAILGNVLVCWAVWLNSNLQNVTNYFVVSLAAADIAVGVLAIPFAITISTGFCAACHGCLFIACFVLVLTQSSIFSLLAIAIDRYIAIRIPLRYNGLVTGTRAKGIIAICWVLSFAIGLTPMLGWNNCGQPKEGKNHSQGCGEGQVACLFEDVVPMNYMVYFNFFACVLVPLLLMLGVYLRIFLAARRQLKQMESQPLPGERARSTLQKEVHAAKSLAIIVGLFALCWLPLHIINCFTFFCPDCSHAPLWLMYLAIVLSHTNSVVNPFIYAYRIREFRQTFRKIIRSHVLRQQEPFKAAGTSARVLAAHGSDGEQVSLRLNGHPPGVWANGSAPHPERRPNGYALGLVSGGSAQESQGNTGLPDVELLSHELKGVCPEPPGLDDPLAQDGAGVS

Ki (hA1AR [1]) [nM] | Ki (hA2AAR) [nM] | Ki (hA3AR) [nM] | Emax at 1 µM (hA2B AR) [%] | EC50 (hA2B AR) [nM] | melting point | inhibition at 1 µM (hA3AR) [%] | EC50 (hA1AR [2]; footnote c, mean ± SEM of four experiments, read-out: hA1AR EC50 or IC50, potency to modulate Forskolin-stimulated cAMP levels) [nM] | hA1AR Efficacy (hA1AR [2]; normalized: CCPA full agonist = 100%, DPCPX inverse agonist = −100%) [%] | hA1AR Profile (hA1AR [2]; pharmacological profile in cAMP assay) | Structure (SMILES)
190 ± 16 | 233 ± 19 | 290 ± 23 | 8 | > 1000 | 293 to 294 °C | – | – | – | – | Br.N#Cc1c(N)nc(SCc2ncc[nH]2)c(C#N)c1-c1ccc(CO)o1 [Compound 2, 2-Amino-4-[5-(hydroxymethyl)furan-2-yl]-6-[(1H-imidazol-2-ylmethyl)sulfanyl]pyridine-3,5-dicarbonitrile hydrobromide]
10.1 ± 0.8 | 10.5 ± 0.9 | 279 ± 21 | 1 | > 1000 | – | – | – | – | – | Cc1ccc(-c2c(C#N)c(N)nc(SCc3ncc[nH]3)c2C#N)o1 [Compound 3, 2-Amino-6-[(1H-imidazol-2-ylmethyl)sulfanyl]-4-(5-methylfuran-2-yl)pyridine-3,5-dicarbonitrile]
0.77 ± 0.09 | 37 ± 3 | 274 ± 23 | 42 | 2.32 ± 0.21 | – | – | – | – | – | N#Cc1c(N)nc(SCc2ncc[nH]2)c(C#N)c1-c1ccoc1 [Compound 4, 2-Amino-4-(furan-3-yl)-6-[(1H-imidazol-2-ylmethyl)sulfanyl]pyridine-3,5-dicarbonitrile]
1.01 ± 0.09 | 55 ± 6 | 221 ± 20 | 47 | 3.15 ± 0.29 | 239 to 241 °C (dec.) | – | – | – | – | N#Cc1c(N)nc(SCc2ncc[nH]2)c(C#N)c1-c1ccsc1 [Compound 6, 2-Amino-6-[(1H-imidazol-2-ylmethyl)sulfanyl]-4-(thiophen-3-yl)pyridine-3,5-dicarbonitrile]
8.85 ± 0.82 | 81 ± 7 | – | 36 | 12.5 ± 1.3 | 230 °C (dec.) | 26 | – | – | – | N#Cc1c(N)nc(SCc2ncc[nH]2)c(C#N)c1-c1ccncc1 [Compound 7, 2-Amino-6-[(1H-imidazol-2-ylmethyl)sulfanyl]-4,4′-bipyridine-3,5-dicarbonitrile]
5.26 ± 0.48 | 463 ± 38 | – | 58 | 63 ± 5 | 244 to 245 °C (dec.) | 19 | – | – | – | N#Cc1c(N)nc(SCc2ncc[nH]2)c(C#N)c1-c1cccnc1 [Compound 8, 2′-Amino-6′-[(1H-imidazol-2-ylmethyl)sulfanyl]-3,4′-bipyridine-3′,5′-dicarbonitrile]
2.71 ± 0.18 | 377 ± 32 | 798 ± 72 | 7 | > 1000 | 232 to 233 °C | – | – | – | – | COc1ccc(-c2c(C#N)c(N)nc(SCc3ncc[nH]3)c2C#N)cn1 [Compound 9, 2′-Amino-6′-[(1H-imidazol-2-ylmethyl)sulfanyl]-6-methoxy-3,4′-bipyridine-3′,5′-dicarbonitrile]
149 ± 11 | 613 ± 53 | – | 1 | > 1000 | – | 23 | – | – | – | N#Cc1c(N)nc(SCc2ncc[nH]2)c(C#N)c1-c1ccc(O)nc1 [Compound 10, 2′-Amino-6-hydroxy-6′-[(1H-imidazol-2-ylmethyl)sulfanyl]-3,4′-bipyridine-3′,5′-dicarbonitrile]
174 ± 14 | 125 ± 10 | – | 9 | > 1000 | 242 °C (dec.) | 6 | – | – | – | N#Cc1c(N)nc(NCCc2c[nH]cn2)c(C#N)c1-c1ccco1 [Compound 13, 2-Amino-4-(furan-2-yl)-6-{[2-(1H-imidazol-4-yl)ethyl]amino}pyridine-3,5-dicarbonitrile]
87 ± 7 | 817 ± 71 | – | 6 | > 1000 | – | 33 | – | – | – | N#Cc1c(N)nc(SCC(=O)NCc2ncc[nH]2)c(C#N)c1-c1ccco1 [Compound 14, 2-{[6-Amino-3,5-dicyano-4-(furan-2-yl)pyridin-2-yl]sulfanyl}-N-(1H-imidazol-2-ylmethyl)acetamide]
33 ± 3 | 279 ± 22 | 542 ± 48 | 6 | > 1000 | – | – | 38 ± 3 | 54 ± 4 | Partial Agonist | N#Cc1c(N)nc(SCc2csc(C(=O)NCCc3cnc[nH]3)n2)c(C#N)c1-c1ccco1 [Compound 17, 4-({[6-Amino-3,5-dicyano-4-(furan-2-yl)pyridin-2-yl]sulfanyl}methyl)-N-[2-(1H-imidazol-5-yl)ethyl]-1,3-thiazole-2-carboxamide]
34 ± 3 | 394 ± 27 | 768 ± 63 | 1 | > 1000 | – | – | – | – | – | CC(=O)Nc1nc(SCc2ncc[nH]2)c(C#N)c(-c2ccco2)c1C#N [Compound 21, N-{3,5-dicyano-4-(furan-2-yl)-6-[(1H-imidazol-2-ylmethyl)sulfanyl]pyridin-2-yl}acetamide]

Source: PMC9024521, “4-Heteroaryl Substituted Amino-3,5-Dicyanopyridines as New Adenosine Receptor Ligands: Novel Insights on Structure-Activity Relationships and Perspectives” (Pharmaceuticals, 2022)
